The values that follow come from patent US20260174744A1, “COMPOUNDS, COMPOSITIONS, AND METHODS OF TREATING RNA VIRAL INFECTIONS” (priority 2024, published 2026).

Assay [1] deals with SARS-CoV-2 variants, Alphacoronavirus, Betacoronavirus, HCV, NoV, IAV, IAB.
The test system is the same in assay [2]. Put plainly: organism not typed. The note with it: read-out: EC50 against remaining viruses.

Molecules are shown by their SMILES.

In general, EC50 refers to the midpoint of the concentration-response curve. Take `Cc1c(-c2ccc(O)cc2)n(Cc2ccc(OCCN3CCCCC3)cc2)c2ccc(O)cc12` [Pipendoxifene]: the “potency against six SARS-CoV-2 variants and two coronaviruses” value in assay [1] is given as “submicromolar potency”. Besides, in assay [2], the EC50 was in the range of 3 to 8 µM.
